Measurements as given in patent publication US7015306B2 (BioSynthema, Inc., priority 1999, dated 2006).
*1 amine or outer side, *2 acyl side, *3 side chain or, on linkers, in order; H or OH if unused. Where a SMILES comes first, the peptide text is derived from it. [ ]: non-standard residue; d: D form. The star is where a group is joined. ξ: configuration not given here. Abu(1-amidino-4-piperidyl) = N=C(N)N1CCC(CC[C@H](N)C(=O)O)CC1; Gly(1-amidinopiperidin-4-yl) = N=C(N)N1CCC([C@H](N)C(=O)O)CC1; Ala(1-amidino-4-piperidyl) = N=C(N)N1CCC(C[C@H](N)C(=O)O)CC1; DTPA = O=C(O)CN(CCN(CC(=O)O)CC(=O)O)CCN(CC(=O)O)CC(=O)*; Phe(4-guanidino) = N=C(N)Nc1ccc(C[C@H](N)C(=O)O)cc1; ξGly(4-Pip(1-amidino)) = N=C(N)N1CCC(C(N)C(=O)O)CC1; X1 = CC(C)C[C@@H](CN[C@@H](CC(C)C)C(N)=O)N*; X3 = CC[C@H](C)[C@@H](COC(=O)[*:2])N[*:1]; Chg = N[C@H](C(=O)O)C1CCCCC1; Tle = CC(C)(C)[C@H](N)C(=O)O; NHOH = ON*

Key:
[1] = In vitro serum stability assay (HPLC) of In-111 labeled peptide; type: in vitro ADME, human; conditions: human serum
Procedure: (§1) All reagents were purchased from Sigma unless otherwise noted. The peptide and ^111InCl3 in 0.05 N HCl were incubated in a sodium acetate/ascorbic acid buffer for 30 minutes at room temperature. The reaction was diluted with 5% ethanol/95% PBS before using in subsequent in vitro assays.
(§2) Human serum was purchased from Sigma (H 1388). The labeled peptide was incubated in either human serum or rat urine at 37EC for the specified amount of time. An aliquot was filtered through a 0.45 μm syringe filter prior to HPLC injection.

[2] = In vitro urine stability assay (HPLC) of In-111 labeled peptide; type: in vitro ADME
Procedure: as §1, §2

remaining at 4 h ([1]; 37EC, t = 4 h, read-out: HPLC Evaluation of Serum Stability at 37EC, Serum, t = 4 h) [%]	HPLC Evaluation of Serum Stability at 37EC, Serum, t = 0 ([1]; t = 0) [%]	HPLC Evaluation of Urine Stability at 37EC, Urine, t = 0 ([2]; rat urine, t = 0) [%]	remaining at 4 h ([2]; rat, 37EC, t = 4 h, read-out: HPLC Evaluation of Urine Stability at 37EC, Urine, t = 4 h) [%]	Structure (SMILES)	% of peptide at 4 hours after incubation at 37EC, Serum ([1]; 37EC) [%]	% of peptide at 4 hours after incubation at 37EC, Urine ([2]; rat urine, 37EC) [%]
				CC(C)C[C@@H](CN[C@@H](CC(C)C)C(N)=O)NC(=O)[C@H](Cc1ccc(O)cc1)NC(=O)[C@@H]1CCCN1C(=O)[C@H](CCCNC(=N)N)NC(=O)[C@H](Cc1ccc(NC(=N)N)cc1)NC(=O)[C@@H]1CCCN1C(=O)[C@@H](CCCCN)NC(=O)CN(CCN(CCN(CC(=O)O)CC(=O)O)CC(=O)O)CC(=O)O [DTPA-DLys-Pro-(4-Gu)Phe-Arg-Pro-Tyr-Leu-(Ψ-CH2-NH)-Leu-OH] ({DTPA}-[dK]P[Phe(4-guanidino)]RPY-X1; C-terminus assumed)	76.2	95.7
				CC(C)C[C@H](NC(=O)[C@@H](NC(=O)[C@H](Cc1ccc(O)cc1)NC(=O)[C@@H]1CCCN1C(=O)[C@H](CCCNC(=N)N)NC(=O)[C@H](CC1CCN(C(=N)N)CC1)NC(=O)[C@@H]1CCCN1C(=O)[C@@H](CCCCN)NC(=O)CN(CCN(CCN(CC(=O)O)CC(=O)O)CC(=O)O)CC(=O)O)C(C)(C)C)C(=O)O [DTPA-DLys-Pro-Ala(PipAm)-Arg-Pro-Tyr-tBuGly-Leu-OH] ({DTPA}-[dK]P[Ala(1-amidino-4-piperidyl)]RPY[Tle]L-OH)	96.5	89.8
				CC(C)C[C@H](NC(=O)[C@@H](NC(=O)[C@@H](Cc1ccc(O)cc1)NC(=O)[C@@H]1CCCN1C(=O)[C@H](CCCNC(=N)N)NC(=O)C(NC(=O)[C@@H]1CCCN1C(=O)[C@@H](CCCCN)NC(=O)CN(CCN(CCN(CC(=O)O)CC(=O)O)CC(=O)O)CC(=O)O)C1CCN(C(=N)N)CC1)C(C)(C)C)C(=O)O (stereo partly drawn) [DTPA-DLys-Pro-Gly(PipAm)-Arg-Pro-DTyr-tBuGly-Leu-OH]	98.9	98.3
				CC(C)C[C@H](NC(=O)[C@@H](NC(=O)[C@H](Cc1ccc(O)cc1)NC(=O)[C@@H]1CCCN1C(=O)[C@H](CCCNC(=N)N)NC(=O)C(NC(=O)[C@@H]1CCCN1C(=O)[C@@H](CCCCN)NC(=O)CN(CCN(CCN(CC(=O)O)CC(=O)O)CC(=O)O)CC(=O)O)C1CCN(C(=N)N)CC1)C1CCCCC1)C(=O)O (stereo partly drawn) [DTPA-DLys-Pro-Gly(PipAm)-Arg-Pro-Tyr-Chg-Leu-OH] ({DTPA}-[dK]P[ξGly(4-Pip(1-amidino))]RPY[Chg]L-OH)	75.2	7.0
				CC[C@H](C)[C@@H](COC(=O)N[C@@H](CC(C)C)C(=O)O)NC(=O)[C@H](Cc1ccc(O)cc1)NC(=O)[C@@H]1CCCN1C(=O)[C@H](CCCNC(=N)N)NC(=O)[C@@H](NC(=O)[C@@H]1CCCN1C(=O)[C@@H](CCCCN)NC(=O)CN(CCN(CCN(CC(=O)O)CC(=O)O)CC(=O)O)CC(=O)O)C1CCN(C(=N)N)CC1 [DTPA-DLys-Pro-Gly(PipAm)-Arg-Pro-Tyr-Ile^R-OCO-Leu-OH] ({DTPA}-[dK]P[Gly(1-amidinopiperidin-4-yl)]RPY[X3]L-OH)	94.6	89.8
				CC(C)C[C@H](NC(=O)[C@@H](NC(=O)[C@H](Cc1ccc(O)cc1)NC(=O)[C@@H]1CCCN1C(=O)[C@H](CCCNC(=N)N)NC(=O)C(NC(=O)[C@@H]1CCCN1C(=O)[C@@H](CCCCN)NC(=O)CN(CCN(CCN(CC(=O)O)CC(=O)O)CC(=O)O)CC(=O)O)C1CCN(C(=N)N)CC1)C(C)(C)C)C(=O)NO (stereo partly drawn) [DTPA-DLys-Pro-Gly(PipAm)-Arg-Pro-Tyr-tBuGly-Leu-HA] ({DTPA}-[dK]P[ξGly(4-Pip(1-amidino))]RPY[Tle]L-{NHOH})	89.2	60.2
				CC(C)C[C@H](NC(=O)[C@@H](NC(=O)[C@H](Cc1ccc(O)cc1)NC(=O)[C@@H]1CCCN1C(=O)[C@H](CCCNC(=N)N)NC(=O)[C@H](CCC1CCN(C(=N)N)CC1)NC(=O)[C@@H]1CCCN1C(=O)[C@@H](CCCCN)NC(=O)CN(CCN(CCN(CC(=O)O)CC(=O)O)CC(=O)O)CC(=O)O)C(C)(C)C)C(=O)O [DTPA-DLys-Pro-homoAla(PipAm)-Arg-Pro-Tyr-tBuGly-Leu-OH] ({DTPA}-[dK]P[Abu(1-amidino-4-piperidyl)]RPY[Tle]L-OH)	84.3	71.3
25.2	99.0	92.3	2.3	CC[C@H](C)[C@H](NC(=O)[C@H](Cc1ccc(O)cc1)NC(=O)[C@@H]1CCCN1C(=O)[C@H](Cc1ccc(NC(=N)N)cc1)NC(=O)[C@H](Cc1ccc(NC(=N)N)cc1)NC(=O)[C@@H]1CCCN1C(=O)[C@@H](CCCCN)NC(=O)CN(CCN(CCN(CC(=O)O)CC(=O)O)CC(=O)O)CC(=O)O)C(=O)N[C@@H](CC(C)C)C(=O)O [In-111-DTPA-DK-P-F(Gu)-F(Gu)-P-Y-I-L, metal not drawn] ({DTPA}-[dK]P[Phe(4-guanidino)][Phe(4-guanidino)]PYIL-OH; C-terminus assumed)		
